The test system of data set [1] is passes which entail pain. The conditions noted are these: mentioned for comparison; cited from earlier work.
Data set [2] relates to hypothermia and ptosis produced by reserpine. The data set can be described thus: Interaction with reserpine. The format is in vivo, mice. As for the experimental part: Batches of 6 mice are given an intraperitoneal injection of reserpine (2.5 mg/kg) 4 hours before the administration of CRL 40,028.
The subject of data set [3] is hypothermia, trembling and peripheral cholinergic symptoms brought about by oxotremorine. Description: Interaction with oxotremorine. Format: in vivo, mice. The settings on record: for effect towards oxotremorine: in words. As to the method:
Mice (6 per dose) are given an intraperitoneal injection of 0.5 mg/kg of oxotremorine 30 minutes after the administration of CRL 40,028.

Another data set concerns groups of mice. The data set can be described thus: Group toxicity. The conditions noted are these: Table IV, graded symbols.
Data set [4] concerns mice. The data set can be described thus: Toxicity, intraperitoneal administration, mice. Format: in vivo. The conditions noted are these: intraperitoneal administration.
A further data set deals with spontaneous motility. The data set can be described thus: Spontaneous motility (actimetry). The format is in vivo, mice. The conditions noted are these: mice. As to the method:
CRL 40,028 increases the motor activity of the animals from a dose of 16 mg/kg onwards. As this effect is representative of the activity of CRL 40,028, attempts have been made to obtain its kinetics more precisely. […]

Data set [5] deals with stereotype behaviour induced by amphetamine. Description: Interaction with amphetamine. Format: in vivo, rats. The conditions noted are these: for duration of the stereotypies brought about by amphetamine: rat, in vivo; for boosting of stereotypies produced by amphetamine-type compounds: in words. As to the method: Amphetamine (2 mg/kg, given intraperitoneally) is injected 30 minutes after the administration of CRL 40,028 (6 rats/dose).

For the next data set, the system named is residual motility. Description: Residual motility. The format is in vivo, mice.
The subject of a further data set is central nervous system. The data set can be described thus: Pharmacological tests: action on the central nervous system, overall profile. The conditions noted are these: for action on the central nervous system: in words. Format: in vivo. As to the method:
The results of the pharmacological tests which were carried out have been summarised below.

For data set [6], the system named is mice. The data set can be described thus: General behaviour, mice. The settings on record: mice. The format is in vivo.
In another data set the test system is rats. The data set can be described thus: General behaviour, rats. The format is in vivo.
In data set [7] the test system is convulsive effects of the electric shock. Description: Electric shock. Format: in vivo, mice. As to the method:
(§1) The test is carried out on batches of 20 mice, 30 minutes after the administration of CRL 40,028.

Data set [8] can be described thus: General behaviour / psychopharmacological spectrum (species not stated). The conditions noted are these: for mydriatic effect: in words. Format: in vivo.
Data set [9] has as its system passes which entail pain. The data set can be described thus: Four plate test. Format: in vivo, mice. The settings on record: in words. As for the experimental part: as §1
The conditions of data set [10]: at doses close to the toxic dose; mentioned for comparison; cited from earlier work.
The mark [11] stands for this setting: at medium doses, very moderate intensity.

In the case of `CN(C)CCCN1c2ccccc2CCc2ccccc21` [imipramine], the “effect in the four plate test (comparison drug)” value (from here on “effect … (comparison drug)”) in the data set with passes which entail pain [1] is on record as “a certain effect in the four plate test”.

For `Cn1c(=O)c2c(ncn2C)n(C)c1=O` [Caffeine, reference compound], the “Anti-reserpine action (ptosis)” value in [2] (Table IV, graded symbols) is 0. Further, in data set [3] (Table IV, graded symbols), the “Anti-oxotremorine action (peripheral)” value was 0 and the “Anti-oxotremorine action (trembling)” value is reported as 0. Also, the Group toxicity with groups of mice is on record as 0.

In the case of `Cl.NC(CC[S+]([O-])C(c1ccccc1)c1ccccc1)=NO` (stereo not shown) [CRL 40,261, 3-(Benzhydrylsulphinyl)-propionamidoxime hydrochloride], the LD-O result in the data set on mice [4] is “greater than 256 mg/kg”. Also, in the data set on spontaneous motility (2 mg/kg, 8 mg/kg and 32 mg/kg), the spontaneous motility entry was “an increase in the spontaneous motility”. In addition, the “duration of the stereotypies brought about by amphetamine” value in data set [5] is given as “an increase in the duration of the stereotypies”. In [2] (in words), the “hypothermia due to reserpine” value is “an increase in the hypothermia due to reserpine” and the “palpebral ptosis induced by reserpine” value is reported as “without alteration of the palpebral ptosis”. Besides, the effect towards oxotremorine entry in [3] is listed as “moderate effect towards oxotremorine”.

`Cl.[O-][S+](CCN1CCCCC1)C(c1ccccc1)c1ccccc1` (stereo not shown) [CRL 40,222, N-[2-(Benzhydrylsulphinyl)-ethyl]-piperidine hydrochloride]: the LD-O result in the data set on mice [4] is “greater than 128 mg/kg”. In addition, the spontaneous motility entry in the data set on spontaneous motility (only at a low dose of 1 mg/kg) is on record as “an increase in the spontaneous motility”. In addition, the residual motility entry in the data set on residual motility (mice, 8 mg/kg) is on record as “a stimulation of the residual motility”. In [5], the “duration of the stereotypies brought about by amphetamine” value was “an increase in the duration of the stereotypies”. In [2] (in words), the anti-reserpine effect entry is given as “absence of an anti-reserpine effect”. Besides, in data set [3], the effect towards oxotremorine result is “a moderate action towards oxotremorine”. For the same molecule, the “action on the central nervous system” value in the data set on central nervous system is given as “acts on the central nervous system”.

Take `O=C(CC[S+]([O-])C(c1ccccc1)c1ccccc1)NO` (stereo not shown) [CRL 40,260, 3-(Benzhydrylsulphinyl)-propionohydroxamic acid]: in the data set with mice [4], the LD-O entry was “greater than 1,024 mg/kg” and the toxicity in words result is “low toxicity”. Further, the spontaneous motility result with spontaneous motility is recorded as “a reduction in the spontaneous motility”. Also, in the data set with mice [6], the hyper-reactivity result is “a hyper-reactivity” and the “sedation, with hypomotility” value is on record as “a sedation, with hypomotility”. In addition, in the data set with rats, the hyper-reactivity entry is listed as “a hyper-reactivity” and the “sedation, with hypomotility” value is listed as “a sedation, with hypomotility”.

In the case of `Cl.NC(CCC[S+]([O-])C(c1ccccc1)c1ccccc1)=NO` (stereo not shown) [CRL 40,277, 4-(Benzhydrylsulphinyl)-butyramidoxime hydrochloride], in the data set on mice [4], the LD-O result was “greater than 512 mg/kg”. Further, the residual hypermotility entry with residual motility (setting [11]) is listed as “inconstant residual hypermotility”. For the same molecule, in data set [5] (setting [11]), the “boosting of the effect of amphetamine” value was “boosting of the effect of amphetamine”. For the same molecule, in data set [2] (at high doses), the “hypothermic effects of reserpine” value is recorded as “aggravation of the hypothermic effects of reserpine”. Besides, the “hypothermic effects of oxotremorine” value in [3] (at high doses) is “aggravation of the hypothermic effects”. The “lethal effects of the electric shock” value in data set [7] (at high doses) is listed as “an aggravation of the lethal effects of the electric shock”. Also, in data set [8] (at high doses), the hypomotility result is “hypomotility” and the hypothermia entry is “hypothermia”. Further, the hyper-reactivity result in data set [8] (setting [11]) is recorded as “hyper-reactivity”. For the same molecule, the “action on the central nervous system” value with central nervous system was “acts on the central nervous system”.

For the molecule `Cl.[O-][S+](CCN1CCOCC1)C(c1ccccc1)c1ccccc1` (stereo not shown) [CRL 40,221, N-[2-(Benzhydrylsulphinyl)-ethyl]-morpholine hydrochloride], the LD-O result in the data set with mice [4] is “greater than 512 mg/kg”. Moreover, the “motor activity in mice accustomed to their chamber” value in the data set on residual motility (mice) is “a resumption of motor activity”. Further, the “boosting of stereotypies produced by amphetamine-type compounds” value in [5] was “a (metabolic) boosting of the stereotypies”. Also, in [2] (in words), the anti-reserpine effect entry is reported as “an anti-reserpine effect”. In addition, the effect towards oxotremorine entry in data set [3] is recorded as “an anti-oxotremorine effect”. Moreover, the “effect in the four plate test” value in the data set on passes which entail pain [9] is “a certain effect in the four plate test”. In addition, in [7] (in words), the “protection against convulsions produced by electric shock” value was “a protection against convulsions”. The sedation entry in [8] (at doses close to the toxic dose) was “a sedation at doses close to the toxic dose”. Moreover, the hypothermia result in [8] (at high doses) was “hypothermia at high doses”. The mydriatic effect result in data set [8] is listed as “a considerable mydriasis”. Besides, the psychopharmacological spectrum result with central nervous system (comparison with tricyclic anti-depressants) is recorded as “close to that of tricyclic anti-depressants”.

For the molecule `CNCCC=C1c2ccccc2CCc2ccccc21` [nortriptyline], the “effect … (comparison drug)” value in the data set with passes which entail pain [1] is “not”. For the same molecule, the “sedation (comparison drug)” value in data set [10] is listed as “a sedation at doses close to the toxic dose”.

Regarding `CN(C)CCC=C1c2ccccc2CCc2ccccc21` [amitriptyline], in the data set with passes which entail pain [1], the “effect … (comparison drug)” value is listed as “a certain effect in the four plate test”. The “sedation (comparison drug)” value in data set [10] is recorded as “not”.

Take `O=C(CCC[S+]([O-])C(c1ccccc1)c1ccccc1)NO` (stereo not shown) [CRL 40,278, 4-(Benzhydrylsulphinyl)-butyrohydroxamic acid]: the LD-O result in the data set on mice [4] is “greater than 1,024 mg/kg”. In addition, in the data set with central nervous system, the “action on the central nervous system” value is listed as “acts on the central nervous system”.

The solubility is the concentration that dissolves in the medium under given conditions. A low value points to a poorly soluble substance. Take `Cl.NC(C[S+]([O-])C(c1ccccc1)c1ccccc1)=NO` (stereo not shown) [CRL 40,048, Benzhydrylsulphinylacetamidoxime hydrochloride]: the “boosting of stereotypies produced by amphetamine-type compounds” value in [5] is “boosts stereotypies produced by amphetamine-type compounds”. Further, the effect towards oxotremorine entry in data set [3] is “antagonist action on oxotremorine”. For the same molecule, in [8], the mydriatic effect result is “absence of a mydriatic effect”. In the data set on mice [6], the “hyper-reactivity to the touch” value is listed as “hyper-reactivity to the touch”. Further, the “action on the central nervous system” value in the data set with central nervous system is on record as “acts only on the central nervous system”. In addition, in the data set “Solubility in water”, the solubility was found to be 100 mg/mL.

The record behind these values is patent US4127722A, “Benzhydrylsulphinyl derivatives” (Laboratoire L. Lafon, priority 1975, dated 1978).
